Data on 36 compounds can be found in PubChem BioAssay AID1417 (Emory University Molecular Libraries Screening Center, 2008).

Chain of Induced myeloid leukemia cell differentiation protein Mcl-1 (Homo sapiens) (Q07820 whole entry, looked up): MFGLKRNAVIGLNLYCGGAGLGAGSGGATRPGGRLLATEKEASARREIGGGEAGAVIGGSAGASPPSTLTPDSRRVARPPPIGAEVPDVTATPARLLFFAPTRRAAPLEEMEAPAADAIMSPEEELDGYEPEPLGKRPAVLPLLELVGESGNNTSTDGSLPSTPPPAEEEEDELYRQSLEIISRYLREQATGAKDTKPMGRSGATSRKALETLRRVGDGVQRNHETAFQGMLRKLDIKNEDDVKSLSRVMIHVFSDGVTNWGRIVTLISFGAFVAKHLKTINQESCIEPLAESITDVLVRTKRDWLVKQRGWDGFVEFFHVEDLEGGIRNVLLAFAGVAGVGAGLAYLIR

This test concerns the target Induced myeloid leukemia cell differentiation protein Mcl-1 (Homo sapiens) (UniProt Q07820). The test is described as follows: Mcl-1/Noxa binding inhibitor potency, dose response, biochemical, TR-FRET (AID 1417). Conditions: Mcl-1/Noxa peptide interaction, cell-free TR-FRET (terbium/rhodamine), 2 h; measured here: absolute IC50. A general note: TR-FRET usually uses a lanthanide donor and a delayed reading to cut background.
In general, IC50 refers to the concentration needed to halve the response being measured. Read a low IC50 as greater potency. `Cc1ccc(CSc2nnc(SCC(=O)N/N=C/c3c[nH]c4ccccc34)s2)cc1` gave an IC50 of 10.1 µM. As for `O=C1NC(=O)N(c2ccccc2)C(=O)/C1=C\c1ccc2c3c(cccc13)CC2`, the IC50 is 8.21 µM. With `Cc1nc2c(c(=O)n1CCC1=CCCCC1)c1nc3ccccc3nc1n2/N=C/c1ccco1` the figure was 4.44 µM; with `N=c1c(C(=O)NCc2ccc3c(c2)OCO3)cc2c(=O)n3ccccc3nc2n1Cc1cccnc1`, 3.26 µM; with `CCOc1cc(/C=N/Nc2nc(-c3cccs3)c(NC(C)=O)s2)ccc1O`, less than 0.4 µM. As for `C=C(C)C(=O)Nc1cccc(C2=NOC3(C2)C[C@@H](C(N)=O)N(C(=O)/C=C/C=C/C)C3)c1` (stereo partly specified), the IC50 is less than 0.4 µM.

The compound `CC(C)N1CCc2c(sc(NC(=O)c3cc4cc([N+](=O)[O-])ccc4s3)c2C(N)=O)C1` gave an IC50 of 3.95 µM. As for `COc1ccc(N/C=C2\C(=O)CCc3c2oc2cc(Cl)c(O)c(Cl)c32)cc1`, the IC50 was determined as 5.07 µM. As for `O=C(O)c1cccc(-n2cccc2/C=C2/NC(=O)N(c3ccc(Cl)cc3)C2=O)c1`, the half-maximal inhibitory concentration (IC50) is less than 0.4 µM. Consider `O=c1oc2ccccc2c2oc3cc(O)c(O)cc3c12`, for which the IC50 was less than 0.4 µM. Turning to `C=CCOC(=O)/C(=C\c1ccccc1)NC(=O)c1ccc(C)cc1`, the IC50 was greater than 54 µM. Turning to `CCC(=O)Oc1ccc2c(=O)c(-c3ccc4ccccc4n3)c(CC)oc2c1C`, the IC50 was greater than 54 µM.

For `CCOC(=O)c1c(NC(C)=O)sc2c(O)c(Br)cc(Br)c12`, the IC50 is 8.58 µM.

In turn, `CN(C)S(=O)(=O)c1cccc(NC(=S)N/N=C/c2ccc(O)c(O)c2O)c1` showed an IC50 of less than 0.4 µM.

In turn, `COc1ccc(NC(=O)Cn2ncc(Cl)c(Cl)c2=O)cc1S(=O)(=O)N1CCOCC1` came in with an IC50 of 4.88 µM. The compound `Oc1cc2c(cc1C(c1ccc(Cl)c(Cl)c1)N1CCCC1)OCO2` (stereo unspecified) gave an IC50 greater than 54 µM.

As to `Cc1cccc(NC(=O)CN2C(=O)N/C(=C/c3ccc(C)o3)C2=O)c1`, the half-maximal inhibitory concentration (IC50) is greater than 54 µM. Under `CC(=O)c1ccc2c(c1)C1C=CCC1C(C(=O)O)N2` (stereo unspecified) stands less than 0.4 µM; under `Cc1ccc(/C=c2\sc3nc(-c4ccccc4Br)nn3c2=O)o1`, 4.37 µM; under `O=C(O)c1ccccc1NS(=O)(=O)c1ccc(NNC(=S)Nc2ccc(OC(F)F)cc2)c([N+](=O)[O-])c1`, less than 0.4 µM. With `Cc1ccc(-c2cc(C(=O)O)c3cc(Br)ccc3n2)o1`, the half-maximal inhibitory concentration (IC50) is 4.68 µM. This lies in the single-digit micromolar range. Consider `CCNc1ccc(Br)cc(C(=O)/C=C/c2ccc3c(c2)OCO3)c1=O`, for which the IC50 was 0.499 µM. For `Cc1c(Cc2ccccc2)c(=O)oc2c(O)c(O)ccc12`, the IC50 turned out to be 33.9 µM. `Cc1cccc(NC2=C(NC(=O)c3ccccc3)C(=O)c3ccccc3C2=O)c1`: the concentration for half-maximal inhibition (IC50) stood at 3.41 µM. In turn, `Cc1ccc(-n2c(=O)c3cc4c(=O)n(-c5ccc(C)c(C)c5)c(=O)c4c(C(=O)c4ccc(C(=O)O)cc4)c3c2=O)cc1C` yielded an IC50 of 4.28 µM.

`Cc1ccc(NC(=O)c2cc(N3C(=O)C=CC3=O)ccc2Cl)cc1C`: the IC50 is less than 0.4 µM. `CCc1nn2c(=O)cc(COc3ccc(/C=C4\C(=N)N5N=C(C)SC5=NC4=O)cc3)nc2s1`: the IC50 turned out to be 3.78 µM. As for `O=C1NC(=O)N(Cc2ccc(F)cc2)C(=O)/C1=C\c1ccc([N+](=O)[O-])s1`, the IC50 turned out to be 7.45 µM. For `CC(=O)c1ccc(NC(=O)CC2Nc3cccc4cccc(c34)NC2=O)cc1` (stereo unspecified), the half-inhibitory concentration (IC50) was 3.62 µM.

`CCN(CC)Cc1cc(O)c(CN(CC)CC)cc1O` gave an IC50 of less than 0.4 µM.

In turn, `CCN1C(=O)/C(=C/c2ccc3c(c2)CCN3CCCCl)C(=O)NC1=S` registered a 50% inhibitory concentration (IC50) of 2.57 µM. Compound `CCCCCCCCCCCCCCCC[n+]1cccc2ccccc21` gave an IC50 of 5.34 µM. This IC50 lies about 2.1-fold higher than the previous one.

Compound `N#C/C(=C\c1ccc(C(=O)O)cc1)c1nc2sc3c(c2c(=O)[nH]1)CCCC3` gave an IC50 of 2.95 µM. `COc1ccc(-c2csc(/C(C#N)=C\c3ccc(O)c([N+](=O)[O-])c3)n2)cc1OC` showed an IC50 of 4.75 µM. In the case of `Cc1cc(C(=O)N/N=C/c2cc(N=Nc3ccccc3)ccc2O)n[nH]1`, the IC50 amounted to 10.9 µM. With `CCCSC1=N/C(=C\c2ccc([N+](=O)[O-])o2)C(=O)S1`, the IC50 came to 3.01 µM.
